Laboratory results as given in patent publication USRE40901E1, “Taxane derivatives and processes for the preparation thereof” (Indena S.p.A., priority 1999, dated 2009).

What was measured:
[1] = system: cancerous cells of breast, lung, ovary, colon, prostate, kidney, pancreas; assay: cytotoxic and anticancer activity against cancerous cells; assay type: cell-based; conditions: statement in words, no data
[2] = system: cell lines expressing the MDR phenotype; assay: overcoming resistance of MDR cell lines; assay type: cell-based; conditions: statement in words, no data

In the case of `CC(=O)O[C@H]1C(=O)[C@@]2(C)C([C@H](OC(=O)c3ccccc3)[C@]34OC(=O)O[C@H]3[C@H](OC(=O)[C@H](O)[C@H](CC(C)C)NC(=O)OC(C)(C)C)C(C)=C1C4(C)C)[C@]1(OC(C)=O)CO[C@@H]1C[C@H]2O` (stereo partly drawn) [Compound (I), 13-(N-Boc-β-isobutylserinyl)-14β-hydroxybaccatine V, 1,14 carbonate], the “cytotoxic and anticancer activities” value [1] is reported as “remarkable cytotoxic and anticancer activities” and the “overcoming the resistance of cell lines expressing the MDR phenotype” value [2] is reported as “capable of overcoming the resistance”.
